# Source: patent US20220175781A1, “CD40L COMPOSITIONS AND METHODS FOR TUNABLE REGULATION” (Obsidian Therapeutics, Inc., priority 2019, published 2022)
# Where two headings read alike, the source gives them in different places.
# Key:
# [1] = test system: T cells (CD4 and CD8); test: Cleavage resistant CD40L expression and TMP regulation in T cells; format: cell-based
# Description: T cells were transduced with OT-001668 and on day 4, the percentage of CD40L expressing T cells (within the both CD4 and CD8) subpopulations was calculated.
# T cells were transduced with ecDHFR regulated construct OT-001671 that include a CD40L protein that was resistant to cleavage. On day 4 cells were treated with 10 μM TMP for 24 hours. […] In an independent experiment, T cells transduced with varying volumes of virus corresponding to OT-001671 were treated with increasing doses of TMP for 24 hours. In Table 41, 0.5 μL, 2 μL, and 10 μL indicate the different volumes of virus that were used.
# [2] = test system: Jurkat cells; conditions: Jurkat cells expressing OT-001662; for Off kinetics (CD40L surface expression, FACS): induced with TMP 50 μM
# Description: Kinetics were tested using stably transduced Jurkat cells expressing OT-001662. To study the kinetics of turning on the expression of CD40L, cells were treated with TMP (5 or 50 μM) and fixed for FACS after: 0, 3, 6, 9, 24, 48 hours. At the end of the experiment all fixed were stained and analyzed via FACS in parallel. To study the kinetics of turning off expression, expression was first induced in Jurkat cells with 50 μM TMP. The cells were then washed to remove TMP and fixed after 0, 3, 6, 9, 24 hours, stained and analyzed via FACS in parallel.
# [3] = test system: Jurkat cells; test: Linker length, ER regulated CD40L, % CD40L positive Jurkat cells; format: cell-based
# Description: Jurkat cells were lentivirally transduced and 24 hours after transduction were treated with DMSO or 1 μM Bazedoxifene for another 24 hours and analyzed by flow cytometry for surface expression of CD40L. […] In Table 33, SR indicates stabilization ratio.
molecule,measurement,setting,value
COc1cc(Cc2cnc(N)nc2N)cc(OC)c1OC [TMP],TMP dose response (percentage of CD40L positive cells),"[1]; CD4+, 0.5 μL virus OT-001671, TMP 0.001 μM",17.9%
same,TMP dose response (percentage of CD40L positive cells),"[1]; CD4+, 0.5 μL virus OT-001671, TMP 0.01 μM",18.8%
same,TMP dose response (percentage of CD40L positive cells),"[1]; CD4+, 0.5 μL virus OT-001671, TMP 0.1 μM",20.4%
same,TMP dose response (percentage of CD40L positive cells),"[1]; CD4+, 0.5 μL virus OT-001671, TMP 1 μM",20.3%
same,TMP dose response (percentage of CD40L positive cells),"[1]; CD4+, 0.5 μL virus OT-001671, TMP 10 μM",27.5%
same,TMP dose response (percentage of CD40L positive cells),"[1]; CD4+, 2 μL virus OT-001671, TMP 0.001 μM",11.8%
same,TMP dose response (percentage of CD40L positive cells),"[1]; CD4+, 2 μL virus OT-001671, TMP 0.01 μM",12.2%
same,TMP dose response (percentage of CD40L positive cells),"[1]; CD4+, 2 μL virus OT-001671, TMP 0.1 μM",14.9%
same,TMP dose response (percentage of CD40L positive cells),"[1]; CD4+, 2 μL virus OT-001671, TMP 1 μM",17.6%
same,TMP dose response (percentage of CD40L positive cells),"[1]; CD4+, 2 μL virus OT-001671, TMP 10 μM",30%
same,TMP dose response (percentage of CD40L positive cells),"[1]; CD4+, 10 μL virus OT-001671, TMP 0.001 μM",4.74%
same,TMP dose response (percentage of CD40L positive cells),"[1]; CD4+, 10 μL virus OT-001671, TMP 0.01 μM",6.79%
same,TMP dose response (percentage of CD40L positive cells),"[1]; CD4+, 10 μL virus OT-001671, TMP 0.1 μM",7.65%
same,TMP dose response (percentage of CD40L positive cells),"[1]; CD4+, 10 μL virus OT-001671, TMP 1 μM",17.2%
same,TMP dose response (percentage of CD40L positive cells),"[1]; CD4+, 10 μL virus OT-001671, TMP 10 μM",43.7%
same,TMP dose response (percentage of CD40L positive cells),"[1]; CD8+, 0.5 μL virus OT-001671, TMP 0.001 μM",0.59%
same,TMP dose response (percentage of CD40L positive cells),"[1]; CD8+, 0.5 μL virus OT-001671, TMP 0.01 μM",0.56%
same,TMP dose response (percentage of CD40L positive cells),"[1]; CD8+, 0.5 μL virus OT-001671, TMP 0.1 μM",0.45%
same,TMP dose response (percentage of CD40L positive cells),"[1]; CD8+, 0.5 μL virus OT-001671, TMP 1 μM",0.43%
same,TMP dose response (percentage of CD40L positive cells),"[1]; CD8+, 0.5 μL virus OT-001671, TMP 10 μM",2.44%
same,TMP dose response (percentage of CD40L positive cells),"[1]; CD8+, 2 μL virus OT-001671, TMP 0.001 μM",0.6%
same,TMP dose response (percentage of CD40L positive cells),"[1]; CD8+, 2 μL virus OT-001671, TMP 0.01 μM",0.59%
same,TMP dose response (percentage of CD40L positive cells),"[1]; CD8+, 2 μL virus OT-001671, TMP 0.1 μM",0.88%
same,TMP dose response (percentage of CD40L positive cells),"[1]; CD8+, 2 μL virus OT-001671, TMP 1 μM",1.29%
same,TMP dose response (percentage of CD40L positive cells),"[1]; CD8+, 2 μL virus OT-001671, TMP 10 μM",5.57%
same,TMP dose response (percentage of CD40L positive cells),"[1]; CD8+, 10 μL virus OT-001671, TMP 0.001 μM",1.18%
same,TMP dose response (percentage of CD40L positive cells),"[1]; CD8+, 10 μL virus OT-001671, TMP 0.01 μM",0.89%
same,TMP dose response (percentage of CD40L positive cells),"[1]; CD8+, 10 μL virus OT-001671, TMP 0.1 μM",0.95%
same,TMP dose response (percentage of CD40L positive cells),"[1]; CD8+, 10 μL virus OT-001671, TMP 1 μM",2.87%
same,TMP dose response (percentage of CD40L positive cells),"[1]; CD8+, 10 μL virus OT-001671, TMP 10 μM",12.4%
same,"On kinetics (CD40L surface expression, FACS)","[2]; TMP 5 μM, 0 hours",743
same,"On kinetics (CD40L surface expression, FACS)","[2]; TMP 5 μM, 3 hours",886
same,"On kinetics (CD40L surface expression, FACS)","[2]; TMP 5 μM, 6 hours",1096
same,"On kinetics (CD40L surface expression, FACS)","[2]; TMP 5 μM, 9 hours",1392
same,"On kinetics (CD40L surface expression, FACS)","[2]; TMP 5 μM, 24 hours",2435
same,"On kinetics (CD40L surface expression, FACS)","[2]; TMP 50 μM, 0 hours",743
same,"On kinetics (CD40L surface expression, FACS)","[2]; TMP 50 μM, 3 hours",890
same,"On kinetics (CD40L surface expression, FACS)","[2]; TMP 50 μM, 6 hours",1180
same,"On kinetics (CD40L surface expression, FACS)","[2]; TMP 50 μM, 9 hours",1466
same,"On kinetics (CD40L surface expression, FACS)","[2]; TMP 50 μM, 24 hours",3952
same,"Off kinetics (CD40L surface expression, FACS)",[2]; 0 hours after wash,3952
same,"Off kinetics (CD40L surface expression, FACS)",[2]; 3 hours after wash,1631
same,"Off kinetics (CD40L surface expression, FACS)",[2]; 6 hours after wash,1620
same,"Off kinetics (CD40L surface expression, FACS)",[2]; 9 hours after wash,1037
same,"Off kinetics (CD40L surface expression, FACS)",[2]; 24 hours after wash,1287
OT-001965: ER regulated CD40L construct with varied linker length (protein) MSLALSLTADQMVSALLDAEPPILYSEYDPTRPFSEASMMGLLTNLADRELVHMINWAKRVPGFVDLTLHDQVHLLECAWMEILMIGLVWRSMEHPGKLLFAPNLLLDRDQGKCVEGGVEIFDMLLATSSRFRMMNLQGEEFVCLKSIILLNSGVYTFLSSTLKSLEEKDHIHRVLDKITDTLIHLMAKAGLTLQQQHQRLAQLLLILSHIRHMSNKRMEHLYSMKCKNVVPLSDLLLEMLDAHRLGSGMIETYNQTSPRSAATGLPISMKIFMYLLTVFLITQMIGSALFAVYLHRRLDKIEDERNLHEDFVFMKTIQRCNTGERSLSLLNCEEIKSQFEGFVKDIMLNKEETKKENSFEMQKGDQNPQIAAHVISEASSKTTSVLQWAEKGYYTMSNNLVTLENGKQLTVKRQGLYYIYAQVTFCSNREASSQAPFIASLCLKSPGRFERILLRAANTHSSAKPCGQQSIHLGGVFELQPGASVFVNVTDPSQVSHGTGFTSFGLLKL,Percent of Jurkat cells expressing CD40L,[3]; 1 μM Bazedoxifene,27%
same,SR,"[3]; 1 μM Bazedoxifene versus DMSO, % CD40L positive Jurkat cells",9
same,Percent of Jurkat cells expressing CD40L,[3]; DMSO,3%
